Test results: ChEMBL document CHEMBL4819029, “Biflavanones, Chalconoids, and Flavonoid Analogues from the Stem Bark of Ochna holstii” (J Nat Prod, 2021)
Converted amounts (≈) assume the structure as drawn. The source made the active and inactive calls. The calls are words filed in the database; no cut-off is given here.

Tests used:
[1] = test system: Bacillus subtilis; assay: Antibacterial activity against Bacillus subtilis incubated for 24 hrs by resazurin based assay; type: functional
[2] = test system: MCF7; assay: Cytotoxicity against human MCF7 cells assessed as reduction in cell viability after 24 hrs by PrestoBlue dye based fluorescence assay; type: functional; conditions: MCF7, 24 h
[3] = test system: Escherichia coli; assay: Antibacterial activity against Escherichia coli incubated for 24 hrs by resazurin based assay; type: functional, organism-based

Row | MIC [1] [µM] | SMILES | EC50 [2] [µM] | Activity [3]
1 | > 250 | COc1cc(O)c2c(c1)OC(c1ccc(O)cc1)C(C1C(=O)c3c(O)cc(OC)cc3OC1c1ccc(O)cc1)C2=O (stereo not drawn) | – | –
2 | > 250 | COc1ccc([C@H]2Oc3cc(OC)cc(O)c3C(=O)[C@@H]2[C@H]2C(=O)c3c(O)cc(OC)cc3O[C@@H]2c2ccc(O)cc2)cc1 | – | –
3 | 14 (≈ 7.57 µg/mL) | COc1cc(O)c2c(c1)O[C@@H](c1ccc(O)cc1)[C@H]([C@@H]1C(=O)c3ccc(O)cc3O[C@H]1c1ccc(O)cc1)C2=O | – | –
4 | > 250 | O=C(/C=C/c1ccc(O)c(Oc2ccc(CCC(=O)c3ccc(O)cc3O)cc2)c1)c1ccc(O)cc1O | – | –
5 | > 250 | O=C1c2ccc(O)cc2O[C@@H](c2ccc(O)cc2)[C@@H]1[C@@H]1C(=O)c2ccc(O)cc2O[C@H]1c1ccc(O)cc1 | – | –
6 | > 250 | O=C(c1ccc(O)cc1O)[C@H]1[C@H](C(=O)c2ccc(O)cc2O)[C@H](c2ccc(O)cc2)O[C@@H]1c1ccc(O)cc1 | 24 | inactive
